Data taken from patent publication US20240279684A1, “CYTOSOLIC DELIVERY OF GENOME EDITING TOOLS” (SAPREME TECHNOLOGIES B.V., priority 2021, published 2024).
“Also recorded” adds a separate entry of the source.

Tests used:
Neuro-2A-cells = test: Puromycin selection after knock-in of the GFP-Puromycin-LDS; assay type: cell-based, murine
Source text: FIG. 12A, B. Puromycin selection after Knock-In of the GFP-Puromycin-LDS. After the knock-out of solute carrier Slc26a4 and integration of GFP-Puromycin-Donor sequence, the cells were cultivated for seven passages until Puromycin selection was started. Different concentrations of Puromycin were applied and the cell viability was observed (A, B). […] Plate wells in rows A-C are numbered 1-4 from left to right. Wells C3-4 were empty.
Subsequent to the co-transfection of Cas9-gRNA-Plasmid and LDS in the presence of GE1741, a Puromycin-mediated selection enabled the isolation of transfected cells and facilitates the identification of donor sequence integration into the genome. For this purpose, different Puromycin concentrations were applied to the transfected cells, in the presence of GE1741. The optimal puromycin concentration should optimally kill non-transfected/non-resistant cells, while sparing cells, which received the resistance through the donor sequence.

Neuro-2A cells = test: Transfection efficiency of PD-nanoplexes with/without saponin, flow cytometry (GFP); assay type: cell-based, murine
Method: (§1) After biophysical characterisation had established that nanoplexes of the large plasmid DNA and the poly-lysine peptide were formed, cell experiments were performed: transfections. […] Without wishing to be bound by any theory, the latter effect is most likely due to insufficient complexing of DNA. […] JIMT-1-cells (DSMZ no.: ACC 589) and Neuro-2A- cells (DSMZ no.: ACC 148) were transfected with nanoplexes containing relatively large Cas9-GFP-plasmid, with and without GE1741-Co-application or SO1861-Co-application at a non-toxic concentration, when the cell which is to be transfected is considered. The transfection efficiency of all transfection conditions was measured after 48 h incubation time using flow cytometry by comparison to the negative control in terms of fluorescence intensity (for example, cells contacted with the nanoparticles in the absence of saponin). The efficiency of GE1741-based transfections and SO1861-based transfections was also compared with efficiency of Lipofectamine3000™-based transfection of the nanoparticles. Transfections were performed according to protocols commonly known and applied in the field (Clochard et al., 2020; Sama et al., 2018a; Sama et al., 2017; Sama et al., 2018b). […] Transfection efficiency of GE1741-mediated PD-transfection and SO1861-mediated PD-transfections on Neuro-2A cells and JIMT-1 cells was assessed. Cells were transfected with Cas9-GFP-DNA containing PD-nanoplexes, with and without GE1741 or SO1861 (final concentration of the saponin was 2 μg/ml). In Neuro-2A cells and JIMT-1 cells transection efficiency varied between 30% and 40%. Lipofectamin3000 served as reference. n≥3; a significant difference compared to the GE1741-free transfections or SO1861-free transfections was apparent, U-test, p≤0.05.
FIG. 4A, B. Transfection efficiency of saponin-mediated PD (Cas9-GFP)-transfections on Neuro-2A cells (FIG. 4A) and on JIMT-1-cells (FIG. 4B). Neuro-2A cells (A) and JIMT-1 cells (B) were transfected with GFP-DNA (i.e. a plasmid comprising the GFP DNA) bearing PD-nanoplexes or with Cas9-GFP-DNA bearing PD-nanoplexes, with and without the highest non-toxic saponin Co-administration (GE1741 Co-administration at 2 μg/ml or SO1861 Co-administration at 2 μg/ml). While GFP-DNA-transfections reached high efficiencies of around 70%, approximately 40% of all cells expressed GFP after Cas9-GFP-transfection. […] N≥3; *: significant difference compared to the saponin-free transfection (only nuclease), U-test.
JIMT-1-cells (human breast carcinoma) and Neuro-2A-cells (murine neuroblastoma) were transfected with nanoplexes, containing Cas9-GFP-plasmid, with and without saponin GE1741-co-application or saponin SO1861-co-application (that is to say, the saponin is added to the cell culture together with the addition of the nanoparticles comprising the nucleic acid that is to be transfected in the presence of the saponin), in a non-toxic concentration when the saponins are considered. The mass ratios for the peptide and the nucleic acid (plasmid DNA) in the nanoparticles were selected considering the dynamic light scattering (DLS) measurements and considering the aforementioned earlier assessed toxicity and earlier performed efficiency studies. The transfection efficiency of all transfection conditions was measured after 48 h incubation time via flow cytometry by comparison to the negative control in terms of fluorescence intensity (FIG. 4). […]

JIMT-1 cells = test: as above; assay type: cell-based, human; settings: GFP-DNA PD-nanoplexes, saponin 2 μg/ml
Method: as §1, with “Cells were transfected with Cas9-GFP-DNA containing PD-nanoplexes, with and without GE1741 or SO1861 (final concentration of the saponin was 2 μg/ml). In Neuro-2A cells and JIMT-1 cells transection efficiency varied between 30% and 40%. Lipofectamin3000 served as reference. n≥3; a significant difference compared to the GE1741-free transfections or SO1861-free transfections was apparent, U-test, p≤0.05.” left out

[1] = tested on: cells with which the nanoplexes are contacted; test: Toxicity of saponin towards cells during transfection; assay type: cell-based
Source text: It is part of the invention that the method or the use of the invention is characterized in that the nanoparticle comprises the nanoparticle-forming compound, such as a peptide, such as poly-lysine, and the nucleic acid in a mass ratio in a range of 3:1 to 15:1, preferably in a range of 3:1 to 9:1. Typically, the nanoparticle-forming compound is a poly-lysine peptide such as K16 peptide. Preferred is the method wherein the nucleic acid is a plasmid DNA, at least encoding for a Cas, preferably Cas9 (SEQ ID NO: 1), and optionally also encoding for the gRNA, and wherein the nanoparticles comprise in addition to the plasmid DNA at least one poly-lysine peptide, preferably poly-lysine K16 peptide (poly-lysine peptide consisting of sixteen lysine residues). Alternatively, the poly-lysine peptide is a peptide consisting of 8-25 lysine residues, preferably 10-20, more preferably 12-18. High in vitro transfection efficiency is obtained with the method of the invention when nanoparticles encompassing plasmid DNA, K16 peptide are prepared and applied, and are contacted with cells in the presence of a saponin selected from GE1741 and SO1861, and preferably the saponin is GE1741. Typically, the saponin concentration during transfection of the plasmid DNA into selected target cells in vitro is 1 μg/mL-5 μg/mL, preferably 2-4 μg/mL. […] Cells are typically contacted with a composition comprising the nanoplexes and a separate composition comprising the saponin, preferably GE1741. Thus, typically, the nanoparticles comprise the poly-lysine peptide and the nucleic acid, for example at least a plasmid DNA encoding for a Cas, preferably Cas9 (SEQ ID NO: 1), or a Cas with at least 90% sequence identity with this Cas9, preferably 90-99.5% sequence identity, such as 92%, 93%, 94%, 95% or 95-99%.

Compound: COc1ccc(C[C@H](N)C(=O)N[C@H]2[C@@H](O)[C@H](n3cnc4c(N(C)C)ncnc43)O[C@@H]2CO)cc1 [Puromycin]
- effect on cells (selection) (Neuro-2A-cells; 0.5 μg/mL): no significant effect
- effect on cells (selection) (Neuro-2A-cells; 1 μg/mL): incomplete selection; also recorded: decrease of confluence
- effect on cells (selection) (Neuro-2A-cells; 2 μg/mL): decrease of confluence
- effect on cells (selection) (Neuro-2A-cells; 2-3 μg/mL): diminished nearly all cells

Compound: CC(=O)OC1C(C)OC(OC2C(C)OC(OC(=O)[C@]34CCC(C)(C)CC3C3=CCC5[C@@]6(C)CC[C@H](OC7OC(C(=O)O)C(O)C(OC8OCC(O)C(O)C8O)C7OC7OC(CO)C(O)C(O)C7O)[C@@](C)(C=O)C6CC[C@@]5(C)C3(C)CC4O)C(OC3OC(C)C(OC4OCC(O)C(OC5OC(CO)C(O)C(O)C5O)C4O)C(O)C3O)C2O)C(O)C1OC1OCC(O)C(O)C1O (stereo partly drawn) [SO1861]
- transfection efficiency (cells expressing GFP) (Neuro-2A cells; GFP-DNA PD-nanoplexes, saponin 2 μg/ml, Neuro-2A): around 70%
- transfection efficiency compared with Lipofectamine3000 (Neuro-2A cells; nanoplexes of relatively large DNA plasmid and poly-lysine, saponin present): higher than obtainable with current gold standard Lipofectamine3000™
- transfection efficiency (cells expressing GFP) (JIMT-1 cells): around 70%
- highest non-toxic saponin Co-administration ([1]; Neuro-2A and JIMT-1 transfections): 2 µg/mL
- toxic activity towards the cells ([1]; saponin concentration of 1 μg/mL-5 μg/mL, applied together with the nanoplexes): not exhibiting toxic activity
